# How the values were obtained:
# Assay type in all cases: in vivo, C57BL/6 mice
# EAE = EAE induced with MOG-35-55 peptide/CFA/pertussis toxin, clinical score
# Source text: Female C57BL/6 mice were pretreated with 17β-estradiol (E2) or placebo for 7 days prior to challenge with MOG-35-55 peptide/CFA/PM to induce EAE. At the peak of EAE in the placebo group (day 15 after induction), cells were harvested from both the placebo-treated mice (score=4.5-5) and E2-treated mice (score=0). Cell mixtures were combined within each treatment group. Five×10^4 CD4+CD25− responder cells in combination with 5×10^4 APC and the indicated ratios of CD4+CD25+ suppressor cells were stimulated in triplicate wells with anti-CD3 mAb for 3 days, with addition of [^3H]-thymidine for the last 12 h of culture. Representative data from two independent experiments are shown.
# (§1) For E2 therapy, a 3 mm pellet containing 2.5 mg or 15 mg (as indicated) 17β-estradiol (Innovative Research of America, Sarasota, Fla.) was implanted s.c. (dorsally) 7 days prior to immunization (EAE) or 14 days prior to analysis of naïve mice. These pellets are designed to release their contents at a constant rate over 60 days. Control animals were implanted with pellets containing saline. Serum levels of E2 were monitored by RIA.
# Briefly, mice were immunized s.c. in the flanks with 200 μg MOG-35-55 peptide in CFA (Difco Laboratories, Detroit, Mich.). Mice were also given pertussis toxin i.p on days 0 (75 ng) and 2 (200 ng).
# Treg compartment = Treg compartment (CD25, Foxp3 mRNA, FoxP3 protein) in naïve mice treated with E2 for 14 days
# Experimental: Quadrant statistics noted are percent of live gate.
# FIG. 5 is a graph illustrating real-time PCR analysis of Foxp3 mRNA in CD4+ cells from FIG. 4. Data are presented as Foxp3 relative to housekeeping gene L32. Error bars are standard deviation of triplicate samples.
# Cells were pooled from 8-10 mice before sorting.
# as §1
# Single-cell suspensions were prepared from spleens and RBCs lysed. Non-immunized mice receiving E2 pellets were sacrificed 14 days after implantation, while immunized mice were sacrificed at the peak of EAE disease severity, approximately 17 days after induction. […]
# For real-time RT-PCR analysis, total RNA was prepared using the Total RNeasy kit (Qiagen, Germantown, Md.) and cDNA was prepared using random hexamer primers (Invitrogen, Grand Island, N.Y.). Foxp3 message expression was quantified using the ABI 7000 Real-Time PCR System (Applied Biosystems, Foster City, Calif.). Amplification was performed in a total volume of 25 μl for 40 cycles and products were detected using SYBR Green I dye (Molecular Probes, Eugene, Oreg.). Samples were run in triplicate and relative expression level was determined by normalization to L32 with results presented as relative expression (RE) units. […] For analysis of FoxP3 protein, cells were washed in PBS then lysed and sonicated in lysis buffer {25 mM Tris pH 8.5, 2% lithium dodecyl sulfate, 1 mM EDTA, 10 mM sodium fluoride, 1 mM sodium orthovanadate, and 1× Complete protease inhibitors (Roche Diagnostics, Mannheim, Germany)} and quantified by BCA (Pierce, Rockford, Ill.). […] FoxP3 was detected with rabbit-anti-FoxP3 antiserum and standard chemiluminescence. […]
# [1] = system: CD4+CD25− responder cells; test: Suppressive activity of CD4+CD25+ T cells from treated mice on CD4+CD25− responder cells (I50)
# Experimental: FIG. 7 illustrates the suppressive activity of CD4+CD25+ T cells recovered from placebo, E2-treated and pregnant mice was measured by their ability to suppress the growth of CD4+CD25−responder cells. Varying numbers of sorted CD4+CD25+ Treg cells from placebo-treated, E2-treated, and pregnant mice were co-cultured in triplicate for 3 days without (0:1 ratio) or with a constant number (5×10^4) of CD4+CD25−responder cells and APC (10^5) from naïve donors, and 0.5 μg/ml anti-CD3 mAb. Responder cells were also cultured alone (1:0 ratio). Proliferation was monitored by uptake of [^3H]-thymidine (1 μCi/well) for the last 12 h of culture. Data are representative of three independent experiments. *I50 values (% CD4+CD25+ cells that could inhibit the proliferation of anti-CD3-activated CD4+CD25−responder cells by 50%) represent the average of two or more independent experiments.
# Female C57BL/6 mice were pretreated with 17β-estradiol (E2) or placebo for 7 days prior to challenge with MOG-35-55 peptide/CFA/PM to induce EAE. At the peak of EAE in the placebo group (day 15 after induction), cells were harvested from both the placebo-treated mice (score=4.5-5) and E2-treated mice (score=0). Cell mixtures were combined within each treatment group. […]
smiles,measurement,setting,value
"C[C@]12CC[C@@H]3c4ccc(O)cc4CC[C@H]3[C@@H]1CC[C@@H]2O [E2, 17β-estradiol]",EAE score,"EAE; E2 pretreatment 7 days before challenge, day 15 after induction (placebo 4.5-5)",0
same,protection from EAE,"EAE; wild-type C57BL/6 mice, therapeutic doses of E2",protected from EAE
same,FoxP3 protein,Treg compartment,increase
same,Foxp3 mRNA in CD4+ cells,Treg compartment,increase
same,increase in the fraction of CD25+ cells among all CD4+ cells versus untreated mice,Treg compartment,43%
same,I50 of Treg suppressive activity,"[1]; E2-protected mice challenged for EAE, day 15, control mice with EAE 30%",2.5%
same,average I50 value for CD4+CD25+ Treg cells,"[1]; Treg from E2-treated mice without EAE, naïve mice 22.4±[…], n=3 experiments",14.7±0.3%
